The target in assay [1] is T1, OST3 complex (Saccharomyces cerevisiae, UniProt P39007).
T1 construct: were purified separately from strains expressing only one type of complex; made in house; host or cells: Saccharomyces cerevisiae, BY4742-derived strain ost6::LEU2MX6 OST4-1D4::kanMX6 YEp352-OST3
The assay can be described thus: In vitro glycosylation assay, kinetic parameters for synthetic LLOs, OST3 complex. As to conditions: OST3 complex, under the tested conditions. The format is biochemical. From the text:
Synthetic LLO substrates all have two GlcNAcs as the sugar moiety, followed by pyrophosphate and lipid moieties (−R) of variable stereochemistry and length, denoted by the carbon chain length. C10, (S)-citronellyl; C15, farnesyl; C20, (S)-citronellylneryl; C25, (S)-citronellylfarnesyl; C90, represents the natural yeast dolichol lipid tail structure where n = 15. Figure modified from Ramirez et al. 2017 ([42]). B, quantification of kinetic parameters for the synthetic LLOs. Reactions were performed with 0.1 μM purified OST3 complex, 25 μM peptide TAMRA-YANATS, and varying concentrations of the different synthetic LLOs. Glycopeptide product was measured by UPLC and turnover rates were determined from the linear initial phase of the reaction. The mean of three reactions is shown and the data were fitted by nonlinear regression according to the Michaelis–Menten formula (R^2 = 0.9842 (LLO C15), 0.9685 (LLO C20), 0.9261 (LLO C25)) using Prism. Error bars indicate standard deviations from the mean (n = 3).
(§1) Concentrations of reactive LLO analogs were determined by in vitro glycosylation (see below) by titrating varying amounts of LLO against a known amount of fluorescently labeled peptide. Concentrations of nonreactive LLO analogs were determined by in vitro glycosylation by titrating varying amounts of nonreactive LLO while using known amounts of both fluorescently labeled peptide and active LLO analog.
Reactions were performed in a total volume of 10 μl containing the specified amount of TAMRA-labeled peptide, synthetic LLO analog, 10 mM MnCl2, and purified OST after size-exclusion chromatography in purification buffer (50 mM Hepes, pH 7.5, 150 mM NaCl, 1 mM MgCl2, 1 mM MnCl2, 10% (v/v) glycerol, 0.03% (w/v) DDM, and 0.006% (w/v) CHS). The concentration of OST was calculated using the molecular weight of 280 kDa. The reaction mixture was preincubated at 30 °C for 5 min before adding the peptide to start the reaction that proceeded at 30 °C. Time points were taken such that the reaction was in the linear phase. […]
(§2) Samples were analyzed by reverse-phase chromatography using a UPLC Dionex UltiMate 3000 with an Accucore 150-C18 100 × 2.1 mm 2.6 μm column (Thermo Fisher Scientific). One microliter sample (2 pmol of peptide) was injected and measured by isocratic elution using a certain proportion of ACN (15% ACN for peptide TAMRA-DANYTK; 20% ACN for peptide TAMRA-YANATS) in 10 mM KPO4, pH 8.0 buffer so that the glycopeptide and peptide are fully separated and elute within 3 min at a constant flow rate of 0.7 ml/min, with a column temperature of 45 °C. The peptide and glycopeptide were detected through TAMRA fluorescence (excitation wavelength: 546 nm; emission wavelength: 579 nm).
The UPLC profiles were analyzed by integrating the peaks corresponding to the glycopeptide and peptide using Chromeleon 7 (Dionex) and calculating the amount of glycopeptide formed using the following equation, as previously described ([43]): [GP]=PeakareaGP/PeakareaP+PeakareaGP×[P]
[GP] is the concentration of glycopeptide, Peak areaGP/P is the area under the curves measured for the glycopeptide or peptide, respectively, and [P] is the concentration of peptide at the start of the reaction. […] Unless specified otherwise, turnover rates were determined from the initial rates of reaction by taking into account the enzyme concentration in the reaction. […]

The target of assay [2] is T1, OST3 complex. The assay can be described thus: Peptide competition assay (unlabeled peptide vs TAMRA-DANYTK). The format is biochemical. As to conditions: 0.4 μM purified OST3 complex, 150 μM LLO C20, 25 μM TAMRA-DANYTK, 25 μM unlabeled competitor peptide, 30 min, relative to control without competitor. As for the experimental part:
Figure 2 In vitro glycosylation assay for OST activity and peptide sequence preferences.A, schematic representation of the in vitro reaction setup for yeast OST activity. The peptide substrate containing the glycosylation sequon N-X-(S/T) is labeled with the TAMRA fluorophore at the N-terminus. Incubation with OST, synthetic LLO, and a divalent metal ion (Mn^2+preferred) results in the transfer of the sugar moiety (two GlcNAcs, blue squares) from the LLO to the fluorescently labeled peptide, yielding a glycopeptide product. […] The glycopeptide elutes earlier than the peptide and amounts of glycopeptide are quantified at different reaction time points by peak integration. C, quantification of kinetic parameters for synthetic peptide TAMRA-DANYTK. […] Glycopeptide product was measured by UPLC and turnover rates were determined by linear regression of the initial phase of the reaction and taking into account the enzyme concentration. […] E, quantification of kinetic parameters for synthetic peptide TAMRA-YANATS. […] Turnover rates were determined as in C. […]
(§3) Samples were analyzed by reverse-phase chromatography using a UPLC Dionex UltiMate 3000 with an Accucore 150-C18 100 × 2.1 mm 2.6 μm column (Thermo Fisher Scientific). […]

Assay [3] has as its system yeast OST3 complex. The experiment in a line: Inhibition of OST activity by nonhydrolyzable LLO analogs. The format is biochemical, Saccharomyces cerevisiae. Particulars: for IC50: 0.1 μM purified OST3 complex, 25 μM TAMRA-YANATS, 50 μM LLO C20, inhibitor 2.5–2000 μM (Ia) or 2.5–3000 μM (Ib), 30 °C, read-out: IC50 (apparent).
Excerpt: Figure 4 Inhibition of yeast OST activity by synthetic nonhydrolyzable LLOs in vitro.A, structure of synthetic nonhydrolyzable LLOs. Synthetic nonreactive LLOs have two GlcNAcs as the sugar moiety, followed by pyrophosphonate and lipid moieties of variable stereochemistry and length, denoted by the carbon chain length. Ia, GlcNAc2-(OH)CPP-(S)-citronellylneryl (C20); Ib, GlcNAc2-CPP-(S)-citronellylfarnesyl (C25). Note that Ia is a hydroxy-phosphonate (with an additional OH group, single diastereomer, R/S configuration unassigned), while Ib is a phosphonate without an additional hydroxyl group. Figure modified from Ramirez et al. 2017 ([42]). B, quantification of inhibition by nonhydrolyzable LLOs shown in A. Reactions were performed with 0.1 μM purified OST3 complex, 25 μM peptide TAMRA-YANATS, 50 μM LLO C20, and varying concentrations of the different synthetic inhibitory LLOs. Glycopeptide product was measured by UPLC and turnover rates were determined from the linear initial phase of the reaction. % inhibition was determined relative to a control reaction without nonhydrolyzable LLOs. […]
as §1
Reactions were performed in a total volume of 10 μl containing the specified amount of TAMRA-labeled peptide, synthetic LLO analog, 10 mM MnCl2, and purified OST after size-exclusion chromatography in purification buffer (50 mM Hepes, pH 7.5, 150 mM NaCl, 1 mM MgCl2, 1 mM MnCl2, 10% (v/v) glycerol, 0.03% (w/v) DDM, and 0.006% (w/v) CHS). The concentration of OST was calculated using the molecular weight of 280 kDa. […]
as §3

Assay [4] concerns TbStt3A. Particulars: reported for TbStt3A, compound 34d; ref [42]; cited from earlier work. The text has this:
The nonreactive LLO analogs Ia and Ib had the same disaccharide and lipid structures as the reactive LLO substrates LLO C20 and LLO C25, respectively. However, they differed from their reactive counterpar ...

Assay [5] has as its target T1, OST3 complex. The assay can be described thus: Turnover of synthetic TAMRA-labeled peptides. The assay is classed as biochemical. As to conditions: 0.5 µM OST3 complex, 20 µM peptide. On the procedure:
TAMRA-labeled peptides with 5-TAMRA at the N-terminus and an amide group at the C-terminus were synthesized by WatsonBio Sciences. Unlabeled peptides (Table S1) were synthesized by Genscript Corp. and were designed so that the asparagine of the glycosylation sequon was in the middle (except for Peptide 8). Lyophilized peptides were dissolved in dimethyl sulfoxide (DMSO), unless specified otherwise, to a 3 mM stock solution and further diluted in ddH2O for reactions.
Reactions were performed in a total volume of 10 μl containing the specified amount of TAMRA-labeled peptide, synthetic LLO analog, 10 mM MnCl2, and purified OST after size-exclusion chromatography in purification buffer (50 mM Hepes, pH 7.5, 150 mM NaCl, 1 mM MgCl2, 1 mM MnCl2, 10% (v/v) glycerol, 0.03% (w/v) DDM, and 0.006% (w/v) CHS). The concentration of OST was calculated using the molecular weight of 280 kDa. The reaction mixture was preincubated at 30 °C for 5 min before adding the peptide to start the reaction that proceeded at 30 °C. Time points were taken such that the reaction was in the linear phase. At each time point, 1 μl reaction mixture was taken and the reaction was stopped by dilution in stop solution (0.1% FA in 10% ACN, 10 mM KPO4 pH 8.0) such that the final peptide concentration was 2 μM.
as §2
The UPLC profiles were analyzed by integrating the peaks corresponding to the glycopeptide and peptide using Chromeleon 7 (Dionex) and calculating the amount of glycopeptide formed using the following equation, as previously described ([43]): [GP]=PeakareaGP/PeakareaP+PeakareaGP×[P] […]
Supp. Table 2. Turnover of synthetic TAMRA-labeled peptides
Peptide Glycopeptide Turnover after 5 min Relative turnover […]
TAMRA, tetramethylrhodamine
Turnover of TAMRA-labeled peptides after 5 min was determined using 0.5 µM OST3 complex, 20 µM indicated peptide and 150 µM LLO C20. Relative turnover compared to TAMRA-DANYTK is given by defining TAMRA-DANYTK turnover as 100 %.

Assay [6] has as its target Ost3p-containing yeast oligosaccharyltransferase complex (S. cerevisiae) (UniProt P41543).
Assay [7] concerns the target Ost6p-containing yeast oligosaccharyltransferase complex (S. cerevisiae) (UniProt P41543).

The star is where a group is joined. 5‑TAMRA = CN(C)c1ccc2c(-c3ccc(C(=O)*)cc3C(=O)[O-])c3ccc(N(C)C)cc3[o+]c2c1

Turning to `CC(=O)NC1C(OC2C(CO)OC(OP(=O)(O)OP(=O)(O)OCCC(C)CCC=C(C)C)C(NC(C)=O)C2O)OC(CO)C(O)C1O` (stereo not drawn) [LLO C10], in assay [1], the “activity as LLO substrate” value is “no detectable activity”. On to ADTYANATSDVL [Peptide 5], for which the “% inhibition of TAMRA-DANYTK glycopeptide formation” value in assay [2] is 50%.

Usually IC50 stands for the point on the concentration scale where inhibition reaches its midpoint. For “GlcNAc2-(OH)CPP-(S)-citronellylneryl [Ia]”, the IC50 in assay [3] stood at 44 µM. In assay [3] (OST3 complex), the “relative inhibitory potency, in words” value is given as “more potent inhibitor of the yeast OST3 complex than Ib”. As for “GlcNAc2-CPP-(S)-citronellylfarnesyl [Ib]”, the IC50 in assay [4] is 26 ± 3 µM; in assay [3], 198 µM. Regarding “TAMRA-ADTYANATSDVL [TAMRA-labeled Peptide 5]”, in assay [5] (150 µM LLO C20), the “Turnover after 5 min” value was 10%. Moreover, the Glycopeptide detected result in assay [5] (150 µM LLO C20, 5 min) was “Yes”. In assay [5] (TAMRA-DANYTK turnover defined as 100 %, 5 min, 150 µM LLO C20), this molecule showed a Relative turnover of 167%.

B1: TAMRA-DANYTK-NH2 (peptide)
peptide: {5‑TAMRA}-DANYTK-NH2
SMILES: C[C@H](NC(=O)[C@H](CC(=O)O)NC(=O)c1ccc(-c2c3ccc(N(C)C)cc3[o+]c3cc(N(C)C)ccc23)c(C(=O)[O-])c1)C(=O)N[C@@H](CC(N)=O)C(=O)N[C@@H](Cc1ccc(O)cc1)C(=O)N[C@H](C(=O)N[C@@H](CCCCN)C(N)=O)[C@@H](C)O
Regarding B1, in assay [6], the apparent KM of the peptide in the in vitro glycosylation assay (Michaelis-Menten fit; about 1 μM OST3 complex, 150 μM LLO C20, 10-400 μM peptide, 30 °C) came out at 201 µM.

B2: TAMRA-YANATS (peptide)
peptide: {5‑TAMRA}-YANATS-NH2
SMILES: C[C@H](NC(=O)[C@H](Cc1ccc(O)cc1)NC(=O)c1ccc(-c2c3ccc(N(C)C)cc3[o+]c3cc(N(C)C)ccc23)c(C(=O)[O-])c1)C(=O)N[C@@H](CC(N)=O)C(=O)N[C@@H](C)C(=O)N[C@H](C(=O)N[C@@H](CO)C(N)=O)[C@@H](C)O
For B2, the apparent KM of the peptide in the in vitro glycosylation assay (Michaelis-Menten fit; 0.1 μM OST6 complex, 100 μM LLO C20, varying peptide, 30 °C) in assay [7] was 44.8 µM. In assay [6], the apparent KM of the peptide in the in vitro glycosylation assay (Michaelis-Menten fit; 0.1 μM OST3 complex, 100 μM LLO C20, 10-500 μM peptide, 30 °C) was 55.6 µM.

These data come from paper PMC8191290, “Substrate specificities and reaction kinetics of the yeast oligosaccharyltransferase isoforms” (The Journal of Biological Chemistry, 2021).
